From patent US6830765B2, “Green tea extract for treating obesity” (priority 1999, dated 2004)

How the values were obtained:
rat brown adipose tissue = experiment: Ex vivo model of thermogenesis: oxygen consumption of a sample of rat brown adipose tissue; format: cell-based
Procedure: These studies were carried out on an ex vivo pharmacological model of thermogenesis. The principle is to measure the oxygen consumption of a sample of rat brown adipose tissue; the oxygen consumption is proportional to the thermogenesis induced in the adipose tissue by the various test substances.

thermogenesis = experiment: Increase in thermogenesis in man (total expenditure of energy over 24 h, 10 volunteers); format: in vivo
Procedure: The increase in thermogenesis in man by an extract of green tea according to the invention was also determined. A similar study was carried out on 10 volunteers receiving at each meal either 500 mg of an extract of green tea (corresponding to 125 mg of catechols and 50 mg of caffeine), or 50 mg of caffeine, or a placebo.

Compound	Increase in oxygen consumption (rat brown adipose tissue; Caffeine 0, EGCG 100 μM)	Increase in oxygen consumption (rat brown adipose tissue; Caffeine 0, EGCG 200 μM)	total expenditure of energy over 24 h (thermogenesis; 50 mg of caffeine at each meal, placebo 9538 kJ)	effect on thermogenesis, result in words (thermogenesis; caffeine alone at the same dose as provided by the extract)	Increase in oxygen consumption (rat brown adipose tissue; Caffeine 100 μM, EGCG 0)
O=C(O[C@@H]1Cc2c(O)cc(O)cc2O[C@@H]1c1cc(O)c(O)c(O)c1)c1cc(O)c(O)c(O)c1 [EGCG, epigallocatechol gallate]	no	+40%	–	–	–
Cn1c(=O)c2c(ncn2C)n(C)c1=O [caffeine]	–	–	9599 kJ	does not increase thermogenesis	no
